Where two headings read alike, the source gives them in different places. Ends that are not written are not given here.
What was measured:
[1] = molecular target: MDM2 (amino acid residues 1-188) (Homo sapiens, UniProt Q00987); experiment: Fluorescence polarization p53 peptide binding/competition assay, MDM2
[2] = molecular target: T1, MDMX (amino acid residues 1-185) (Homo sapiens, UniProt O15151); experiment: Fluorescence polarization p53 peptide binding/competition assay, MDMX
T1 sequence (O15151 1-185): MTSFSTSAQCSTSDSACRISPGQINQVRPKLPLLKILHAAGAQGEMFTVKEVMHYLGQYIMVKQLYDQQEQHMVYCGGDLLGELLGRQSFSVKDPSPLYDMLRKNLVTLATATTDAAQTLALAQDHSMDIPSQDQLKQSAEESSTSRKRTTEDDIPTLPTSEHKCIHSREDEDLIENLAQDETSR

retinoblastoma cells = conditions: for p53 response: topotecan at LC50 for 1 hour, nutlin-3 treatment
[3] = cited from earlier work
HDM2 = HDM2 (Homo sapiens, UniProt Q00987); conditions: literature; cited from earlier work
Sequence of HDM2 (Q00987 whole entry): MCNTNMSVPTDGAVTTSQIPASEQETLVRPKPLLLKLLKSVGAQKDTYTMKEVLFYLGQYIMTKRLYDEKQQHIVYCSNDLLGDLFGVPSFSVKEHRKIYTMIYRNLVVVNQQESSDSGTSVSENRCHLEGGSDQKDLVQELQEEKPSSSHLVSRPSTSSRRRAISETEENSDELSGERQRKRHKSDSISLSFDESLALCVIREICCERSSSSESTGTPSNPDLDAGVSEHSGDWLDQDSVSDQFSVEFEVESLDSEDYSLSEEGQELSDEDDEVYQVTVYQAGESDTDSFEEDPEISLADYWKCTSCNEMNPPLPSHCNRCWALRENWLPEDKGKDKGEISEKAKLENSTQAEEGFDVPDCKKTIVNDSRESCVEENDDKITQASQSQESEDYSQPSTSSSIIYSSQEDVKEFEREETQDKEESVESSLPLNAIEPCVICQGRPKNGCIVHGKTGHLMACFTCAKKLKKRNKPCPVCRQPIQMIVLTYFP

Y79 cells = experiment: Retinoblastoma cell viability, Y79 cells; type: cell-based, human; conditions: 72 hours, total racemic drug; read-out: LC50 (the source's name)
From the text: These studies were extended to retinoblastoma cells. […] MDM2, p53 and p21 levels were induced in all cells except for the 911 cells in which p53 was inactivated by the large E1B protein.

Weril and Y79 cells = conditions: lentivirus control-infected cells
[4] = tested on: p53^LSL MEFs null for Mdm2 and/or MdmX; experiment: MTT growth/viability assay in p53^LSL MEFs
MDM2, p53 and p21 levels = experiment: Immunoblot analysis of p53 pathway induction; conditions: 4 μM nutlin-3; Weril, Y79, primary retinoblasts; all cells except 911 cells
Mdm2^Lox/Lox MEFs = experiment: Clonal analysis in Mdm2-deficient MEFs (Table 8)
[5] = tested on: SJRBL8 retinoblastoma cell line; experiment: Retinoblastoma cell viability, p53-deficient SJRBL8 cells; conditions: 10 μM to 1 nM, 72 hours

Sequence of MDM2 (amino acid residues 1-188) (Q00987 1-188): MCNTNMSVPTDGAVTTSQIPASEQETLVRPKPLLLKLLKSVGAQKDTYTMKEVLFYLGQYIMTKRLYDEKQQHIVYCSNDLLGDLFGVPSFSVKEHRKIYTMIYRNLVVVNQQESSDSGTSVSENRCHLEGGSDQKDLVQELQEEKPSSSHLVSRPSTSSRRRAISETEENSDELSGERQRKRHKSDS

With “NH2-Gly-Ser-Gly-Ser-Ser-Gln-Glu-Thr-Ala-Ser-Asp-Leu-Ala-Lys-Leu-Ala-Pro-Glu-Asn-OH (H-GSGSSQETASDLAKLAPEN-OH) [p53 mutant]” the MDM2 binding [1] was “no MDM2 or MDMX binding” and the MDMX binding [2] was “no MDM2 or MDMX binding”.

In the case of CC[C@@]1(O)C(=O)OCc2c1cc1n(c2=O)Cc2cc3c(CN(C)C)c(O)ccc3nc2-1 [topotecan, Topotecan], the p53 response (retinoblastoma cells) is given as “induced a p53 response” and the intraocular penetration ([3]; systemic administration, murine models of retinoblastoma) is given as “good intraocular penetration”.

In the case of MPRFMDYWEGLN [SEQ ID NO:2], the “affinity / inhibition of p53/HDM2 complex” value (HDM2) is given as “sub-micromolar affinity” and the “fold increase in potency compared to wild-type p53-derived peptide (SEQ ID NO:3)” value (HDM2) is given as 28 fold.

In the case of chlorofusin, the “affinity / inhibition of p53/HDM2 complex” value (HDM2) is listed as “micromolar inhibitor”.

In the case of COc1ccc(C2=N[C@@H](c3ccc(Cl)cc3)[C@@H](c3ccc(Cl)cc3)N2C(=O)N2CCNC(=O)C2)c(OC(C)C)c1 [nutlin-3], the CC50 (Y79 cells) is reported as 2000 nM, the “response to nutlin-3 with MDMX cDNA” value (Weril cells; Weril cells, MDMX cDNA) is reported as “more resistant” and the “response to nutlin-3 with MDMX siRNA” value (Weril cells; Weril cells, MDMX siRNA) is reported as “sensitized”. For the same compound, the CC50 (Weril cells; read-out: LC50 (50% lethal concentration), 72 hours, total racemic drug) was 700 nM, the CC50 (Weril cells; read-out: LC50, Weril cells transfected with control siRNA) was 600 nM and the CC50 (Weril cells; read-out: LC50, Weril cells transfected with p53 siRNA) was 10000 nM. For the same compound, the “proliferation of control-infected cells” value (Weril and Y79 cells) was “inhibited the proliferation”, the “effect of nutlin-3 alone” value (retinoblastoma cells; 10 nM) was “ineffective alone” and the p53 response (retinoblastoma cells) was “induced a p53 response”. The “sensitivity of MEFs to nutlin-3” value ([4]; MdmX^+/− MEFs after Cre) was “sensitive”, the “sensitivity of MEFs to nutlin-3” value ([4]; MdmX^−/− MEFs after Cre) was “insensitive” and the “MDM2, p53 and p21 levels” value (MDM2, p53 and p21 levels) was “induced”. The “MdmX rescue of the loss of Mdm2 in MEFs” value (Mdm2^Lox/Lox MEFs; 1.25 μM or 5 μM racemic nutlin-3) was “blocked”, the “number of cells per clone” value (Mdm2^Lox/Lox MEFs; GFP virus, 1.25 μM racemic nutlin-3, Day 2) was 1.0 ± 0^ and the “number of cells per clone” value (Mdm2^Lox/Lox MEFs; GFP virus, 1.25 μM racemic nutlin-3, Day 3) was 1.5 ± 0.4. For the same compound, the “number of cells per clone” value (Mdm2^Lox/Lox MEFs; GFP virus, 1.25 μM racemic nutlin-3, Day 4) was 2.1 ± 0.7, the “number of cells per clone” value (Mdm2^Lox/Lox MEFs; GFP virus, 5.0 μM racemic nutlin-3, Day 2) was 1.1 ± 0.2 and the “number of cells per clone” value (Mdm2^Lox/Lox MEFs; GFP virus, 5.0 μM racemic nutlin-3, Day 3) was 1.5 ± 0.4. For the same compound, the “number of cells per clone” value (Mdm2^Lox/Lox MEFs; Mdm2-GFP virus, 1.25 μM racemic nutlin-3, Day 2) was 3.1 ± 1.5, the “number of cells per clone” value (Mdm2^Lox/Lox MEFs; Mdm2-GFP virus, 1.25 μM racemic nutlin-3, Day 3) was 6.6 ± 5.2 and the “number of cells per clone” value (Mdm2^Lox/Lox MEFs; Mdm2-GFP virus, 1.25 μM racemic nutlin-3, Day 4) was 10.0 ± 7.4. The “number of cells per clone” value (Mdm2^Lox/Lox MEFs; Mdm2-GFP virus, 1.25 μM racemic nutlin-3, Day 5) was 12.9 ± 8.1, the “number of cells per clone” value (Mdm2^Lox/Lox MEFs; Mdm2-GFP virus, 1.25 μM racemic nutlin-3, Day 6) was 14.5 ± 9.3 and the “number of cells per clone” value (Mdm2^Lox/Lox MEFs; Mdm2-GFP virus, 5.0 μM racemic nutlin-3, Day 2) was 3.0 ± 2.2. The “number of cells per clone” value (Mdm2^Lox/Lox MEFs; Mdm2-GFP virus, 5.0 μM racemic nutlin-3, Day 3) was 3.3 ± 1.4, the “number of cells per clone” value (Mdm2^Lox/Lox MEFs; Mdm2-GFP virus, 5.0 μM racemic nutlin-3, Day 4) was 3.9 ± 2.1 and the “number of cells per clone” value (Mdm2^Lox/Lox MEFs; Mdm2-GFP virus, 5.0 μM racemic nutlin-3, Day 5) was 3.1 ± 1.7. For the same compound, the “number of cells per clone” value (Mdm2^Lox/Lox MEFs; Mdm2-GFP virus, 5.0 μM racemic nutlin-3, Day 6) was 2.8 ± 2.0, the “number of cells per clone” value (Mdm2^Lox/Lox MEFs; MdmX-GFP virus, 1.25 μM racemic nutlin-3, Day 2) was 1.1 ± 0.2 and the “number of cells per clone” value (Mdm2^Lox/Lox MEFs; MdmX-GFP virus, 1.25 μM racemic nutlin-3, Day 3) was 1.9 ± 0.6. For the same compound, the “number of cells per clone” value (Mdm2^Lox/Lox MEFs; MdmX-GFP virus, 1.25 μM racemic nutlin-3, Day 4) was 2.8 ± 1.7, the “number of cells per clone” value (Mdm2^Lox/Lox MEFs; MdmX-GFP virus, 1.25 μM racemic nutlin-3, Day 5) was 3.4 ± 2.2 and the “number of cells per clone” value (Mdm2^Lox/Lox MEFs; MdmX-GFP virus, 1.25 μM racemic nutlin-3, Day 6) was 2.1 ± 1.9. For the same compound, the “number of cells per clone” value (Mdm2^Lox/Lox MEFs; MdmX-GFP virus, 5.0 μM racemic nutlin-3, Day 2) was 1.2 ± 0.4, the “number of cells per clone” value (Mdm2^Lox/Lox MEFs; MdmX-GFP virus, 5.0 μM racemic nutlin-3, Day 3) was 1.1 ± 0.1 and the “number of cells per clone” value (Mdm2^Lox/Lox MEFs; MdmX-GFP virus, 5.0 μM racemic nutlin-3, Day 4) was 1.3 ± 0.2. The “number of cells per clone” value (Mdm2^Lox/Lox MEFs; MdmX-GFP virus, 5.0 μM racemic nutlin-3, Day 5) was 1.0 ± 0^ and the viability [5] was “no decrease in viability at any concentration tested”.

For FMDYWEGL [SEQ ID NO:4], the “affinity / inhibition of p53/HDM2 complex” value (HDM2) is listed as “micromolar affinity”.

In the case of O=C(O)COc1ccc(C(=O)C=Cc2ccc(Cl)c(Cl)c2)cc1 [Trial B-1, {4-[3-(3,4-dichloro-phenyl)-acryloyl]-phenoxy}-acetic acid], the “affinity / inhibition of p53/HDM2 complex” value (HDM2) is given as “high micromolar affinity”.

For COc1ccc(C2=N[C@@H](c3ccc(Cl)cc3)[C@@H](c3ccc(Cl)cc3)N2C(=O)N2CCNC(=O)C2)c(OC(C)C)c1 [nutlin-3a], the “penetration into the vitreous” value ([3]; oral and intravenous formulations) is listed as “poor penetration into the vitreous”.

From patent publication US8470785B2, “Method for treating ocular cancer” (St. Jude Children's Research Hospital, priority 2006, dated 2013)
